Assay results taken from patent publication US3978225A, “Heterocyclic homoprostanoidal derivatives” (SmithKline Corporation, priority 1975, dated 1976).

Legend:
[1] = test system: diarrhea induced by prostaglandin E2 (PGE2); assay: Inhibition of PGE2 diarrhea in mice; type: in vivo; details: 15 minutes prior to i.p. PGE2
Protocol: The antagonism of diarrhea induced by prostaglandin E2 (PGE2) was determined by employing the modified standard animal pharmacological test procedure as reported in Intra Science Chem. Rept 6:1-9, 1972 and Annals of the New York Academy of Sciences 180:386-95, 1971. Briefly the test comprises administering the test compounds subcutaneously 15 minutes prior to an intraperitoneal injection of PGE2. Each animal is examined for diarrhea (which results after the administration of PGE2) every 15 minutes for one hour post-drug. Polyphloretin phosphate and 7 oxa-13-prostynoic acid, both well known antagonists of prostaglandin induced diarrhea, were employed as reference compounds. Results of tests conducted for the inhibition of PGE2 diarrhea in mice are disclosed in Table 2.

prostaglandin synthesis = assay: Inhibition of prostaglandin synthesis (arachidonic acid-dependent formation of adrenochrome from L-epinephrine); type: biochemical; details: for Inhibition of prostaglandin synthesis: 1000 μM; for IC50: read-out: ID50, inhibition of prostaglandin synthesis
Description: The prostaglandin synthesis inhibition method as employed is reported by Takeguchi and Sih, Prastaglandins, 2, 169, 1972. The principle entails the arachidonic acid-dependent formation of adrenochrome from L-epinephrine during prostaglandin biosynthesis. Indomethacin, phenylbutazone and aspirin were used as reference compounds.

Compound	Percent Change, Diarrhea Incidence ([1]; 5 mg/kg S.C.)	Percent Change, Diarrhea Incidence ([1]; 10 mg/kg S.C.)	Percent Change, Diarrhea Incidence ([1]; 20 mg/kg S.C.)	Percent Change, Diarrhea Incidence ([1]; 40 mg/kg S.C.)	IC50 (prostaglandin synthesis)	other results
CCCCCCCC[C@@H]1OS(=O)O[C@H]1CCCCCCCC(=O)OC (relative stereo) [Compound C]	+15%	-31%	-54%	-8%	–	Inhibition of prostaglandin synthesis (prostaglandin synthesis): 20%
CCCCCCCC[C@@H]1SC(=S)S[C@H]1CCCCCCCC(=O)O (relative stereo) [Compound E, (8.xi.-trans)-10-thioxo-9,11-dithia-1a-homoprostan-1-oic acid]	–	–	–	–	390 µM	–
CCCCCCCC[C@@H]1OCO[C@H]1CCCCCCCC(=O)O (relative stereo) [Compound F, (8.xi.-trans)-9,11-dioxa-1a-homoprostan-1-oic acid]	0%	-36%	0%	-14%	–	Inhibition of prostaglandin synthesis (prostaglandin synthesis): 30%
CCCCCCCC[C@@H]1OS(=O)O[C@@H]1CCCCCCCC(=O)OC (relative stereo) [Compound G, (8.xi.-cis)-10-oxo-9,11-dioxa-10-thia-1a-homoprostan-1-oic acid, methyl ester]	-14%	-29%	-57%	0%	–	–
CCCCCCC#C[C@H]1CCC[C@@H]1OCCCCCC(=O)O [7-oxa-13-prostynoic acid, reference compound]	-100%	–	–	–	–	Percent Change, Diarrhea Incidence ([1]; 0.2 mg/kg S.C.): -15%; Percent Change, Diarrhea Incidence ([1]; 1 mg/kg S.C.): -100%
CC(=O)Oc1ccccc1C(=O)O [Aspirin, reference compound]	–	–	–	–	3700 µM	–
COc1ccc2c(c1)c(CC(=O)O)c(C)n2C(=O)c1ccc(Cl)cc1 [Indomethacin, reference compound]	–	–	–	–	2 µM	–
CCCCC1C(=O)N(c2ccccc2)N(c2ccccc2)C1=O [Phenylbutazone, reference compound]	–	–	–	–	875 µM	–
polyphloretin phosphate [PPP, reference compound]	-4%	-26%	-36%	-65%	–	Percent Change, Diarrhea Incidence ([1]; 80 mg/kg S.C.): -68%
